These are literature values, as cited in patent US4197292A, “Novel amylase inhibitors” (Taisho Pharmaceutical Co., priority 1978, dated 1980).

This series deals with β-glucosidase. The following applies: prior art inhibitor.

As for `OC[C@H]1NC(O)[C@H](O)[C@@H](O)[C@@H]1O` (stereo partly shown) [Nojirimycin], the “inhibitory activity to β-glucosidase (in words)” value is “has inhibitory activity”.
